Laboratory results: patent US9695155B2, “Herbicidal substituted pyrimidinyloxy benzene compounds” (E. I. DU PONT DE NEMOURS AND COMPANY, priority 2013, dated 2017)
Read-outs that look alike come from different tables or passages of the source.

Assays:
wheat = experiment: Test A postemergence; type: in vivo, Triticum aestivum; conditions: for plant injury at 125 g/ha / plant injury at 500 g/ha: Triticum aestivum, post-emergence, 240 h
Method in brief: (§1)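 Visual injury scored 0–100 (100 = complete control) against untreated controls about 10 days after treatment in a greenhouse. Test chemicals, formulated with surfactant in non-phytotoxic solvent, were sprayed on soil preemergence or on 2-10 cm, one- to two-leaf plants postemergence.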

barnyardgrass = experiment: Test A postemergence; type: in vivo, Echinochloa crus-galli; conditions: for pest or weed control at 125 g/ha / pest or weed control at 500 g/ha: Echinochloa crus-galli, post-emergence, 240 h; for pest or weed control at 125 g/ha: read-out: Plant response rating, Barnyardgrass; for pest or weed control at 500 g/ha: read-out: Plant response rating Barnyardgrass
Method in brief: as §1

large (Lg) crabgrass = experiment: Test C postemergence; type: in vivo, Digitaria sanguinalis; conditions: for Plant response rating (0 to 100), Crabgrass, Large: 0 is no effect, 100 is complete control; for Crabgrass, Large plant response rating / pest or weed control at 31 g/ha: 31 g ai/ha; for pest or weed control at 31 g/ha / pest or weed control at 62 g/ha: read-out: Plant response rating, Crabgrass, Large
Text: (§2) Seeds of plant species selected from blackgrass (Alopecurus myosuroides), Italian ryegrass (Lolium multiflorum), wheat, winter (winter wheat, Triticum aestivum), galium (catchweed bedstraw, Galium aparine), corn (Zea mays), large (Lg) crabgrass (Digitaria sanguinalis), giant foxtail (Setaria faberii), johnsongrass (Sorghum halepense), lambsquarters (Chenopodium album), morningglory (Ipomoea coccinea), yellow nutsedge (Cyperus esculentus), pigweed (Amaranthus retroflexus), ragweed (common ragweed, Ambrosia elatior), soybean (Glycine max), barnyardgrass (Echinochloa crus-galli), oilseed rape (Brassica napus), waterhemp (common waterhemp, Amaranthus rudis), kochia (Kochia scoparia), wild oat (Avena fatua), surinam grass (Brachiaria decumbens), foxtail, green (green foxtail, Setaria viridis), goosegrass (Eleusine indica), bromegrass, downy (downy bromegrass, Bromus tectorum), nightshade (eastern black nightshade, Solanum ptycanthum), cocklebur (common cocklebur, Xanthium strumarium), cupgrass, woolly (woolly cupgrass, Eriochloa villosa), bermudagrass (Cynodon dactylon), sunflower, (common oilseed sunflower, Helianthus annuus), Russian thistle (Salsola kali), and velvetleaf (Abutilon theophrasti) were planted into a blend of loam soil and sand and treated preemergence with test chemicals formulated in a non-phytotoxic solvent mixture which included a surfactant.
(§3) At the same time, plants selected from these crop and weed species and also barley, winter (winter barley, Hordeum vulgare), windgrass (Apera spica-venti), chickweed (common chickweed, Stellaria media), deadnettle (henbit deadnettle, Lamium amplexicaule), and canarygrass (littleseed canarygrass, Phalaris minor) were planted in pots containing Redi-Earth® planting medium (Scotts Company, 14111 Scottslawn Road, Marysville, Ohio 43041) comprising spaghnum peat moss, vermiculite, wetting agent and starter nutrients and treated with postemergence applications of test chemicals formulated in the same manner. Plants ranged in height from 2 to 18 cm (1- to 4-leaf stage) for postemergence treatments. Treated plants and controls were maintained in a greenhouse for 13 to 15 days, after which time all species were compared to controls and visually evaluated. Plant response ratings, summarized in Table C, are based on a scale of 0 to 100 where 0 is no effect and 100 is complete control. A dash (-) response means no test result.

blackgrass = experiment: Test C postemergence; type: in vivo, Alopecurus myosuroides; conditions: for Plant response rating (0 to 100), Blackgrass: 0 is no effect, 100 is complete control; for Blackgrass plant response rating / pest or weed control at 31 g/ha: 31 g ai/ha; for pest or weed control at 31 g/ha / pest or weed control at 62 g/ha: read-out: Plant response rating, Blackgrass
Text: as §2, §3

oilseed rape = experiment: Test C postemergence; type: in vivo, Brassica napus; conditions: for Plant response rating (0 to 100), Oilseed Rape: 0 is no effect, 100 is complete control
Text: as §2, §3

morningglory = experiment: Test A preemergence; type: in vivo, Ipomoea spp.
Method in brief: as §1

giant foxtail = experiment: Test A postemergence; type: in vivo, Setaria faberii; conditions: for pest or weed control at 125 g/ha / pest or weed control at 500 g/ha: Setaria faberi, post-emergence, 240 h
Method in brief: as §1

[1] = 125 g ai/ha, 0 to 100 scale where 0 is no effect and 100 is complete control
[2] = 500 g ai/ha, 0 to 100 scale where 0 is no effect and 100 is complete control
[3] = postemergence, visual rating, scale 0 to 100 (0 no effect, 100 complete control), 13 to 15 days
[4] = 125 g ai/ha, postemergence, visual rating, scale 0 to 100 (0 no effect, 100 complete control)
[5] = Postemergence, 62 g ai/ha, scale 0 to 100 (0 no effect, 100 complete control), 13 to 15 days
[6] = 31 g ai/ha, postemergence, visual rating, scale 0 to 100 (0 no effect, 100 complete control), 13 to 15 days
[7] = 1000 g ai/ha, 0 to 100 scale, 0 no effect, 100 complete control
[8] = 125 g ai/ha, 0 to 100 scale where 0 is no effect and 100 is complete control, read-out: Plant response rating, Wheat
[9] = 500 g ai/ha, 0 to 100 scale, 0 no effect, 100 complete control
[10] = Digitaria sanguinalis, post-emergence, 125 g ai/ha, postemergence, read-out: Plant response rating (0 to 100), Crabgrass, Large
[11] = Digitaria sanguinalis, post-emergence, Postemergence, scale 0 to 100 (0 no effect, 100 complete control), 13 to 15 days
[12] = Digitaria sanguinalis, post-emergence, Postemergence, 62 g ai/ha, scale 0 to 100 (0 no effect, 100 complete control)
[13] = Alopecurus myosuroides, post-emergence, 125 g ai/ha, postemergence, read-out: Plant response rating (0 to 100), Blackgrass
[14] = Alopecurus myosuroides, post-emergence, Postemergence, scale 0 to 100 (0 no effect, 100 complete control), 13 to 15 days
[15] = Alopecurus myosuroides, post-emergence, Postemergence, 62 g ai/ha, scale 0 to 100 (0 no effect, 100 complete control)
[16] = Ipomoea, pre-emergence, 240 h, 500 g ai/ha, 0 to 100 scale, 0 no effect, 100 complete control, approx. 10 days, read-out: Morningglory plant response rating
[17] = 125 g ai/ha, 0 to 100 scale where 0 is no effect and 100 is complete control, read-out: Plant response rating, Foxtail, Giant

Row | Compound | Plant response rating (0 to 100), Crabgrass, Large (large (Lg) crabgrass; 16 g ai/ha, postemergence) | Crabgrass, Large plant response rating (large (Lg) crabgrass; [3]) | Plant response rating, Crabgrass, Large (large (Lg) crabgrass; [5]) | Plant response rating (0 to 100), Blackgrass (blackgrass; 16 g ai/ha, postemergence) | Blackgrass plant response rating (blackgrass; [3]) | Plant response rating, Blackgrass (blackgrass; [5]) | Plant response rating (0 to 100), Oilseed Rape (oilseed rape; 16 g ai/ha, postemergence) | Oilseed Rape plant response rating (oilseed rape; [6]) | Plant response rating, Oilseed Rape (oilseed rape; [5]) | plant injury at 125 g/ha (wheat; [8]) | pest or weed control at 125 g/ha (barnyardgrass; [1]) | pest or weed control at 500 g/ha (barnyardgrass; [9]) | pest or weed control at 125 g/ha (large (Lg) crabgrass; [10]) | pest or weed control at 31 g/ha (large (Lg) crabgrass; [11]) | pest or weed control at 62 g/ha (large (Lg) crabgrass; [12]) | pest or weed control at 125 g/ha (blackgrass; [13]) | pest or weed control at 31 g/ha (blackgrass; [14]) | pest or weed control at 62 g/ha (blackgrass; [15]) | pest or weed control at 500 g/ha (morningglory; [16]) | pest or weed control at 125 g/ha (giant foxtail; [17]) | further results
1 | Clc1cnc(Oc2cccc(Cl)c2-n2cc(Cl)cn2)nc1 [Compound 220] | 5 | 5 | 5 | 0 | 60 | 40 | 50 | 65 | 85 |  |  |  |  |  |  |  |  |  |  |  | Wheat plant response rating (wheat; [1]): 10; Plant response rating, Wheat (wheat; [2]): 60; Barnyardgrass plant response rating (barnyardgrass; [1]): 90; Plant response rating, Barnyardgrass (barnyardgrass; [2]): 100; Plant response rating, Crabgrass, Large (large (Lg) crabgrass; [4]): 5; Plant response rating, Blackgrass (blackgrass; [4]): 50; Plant response rating, Oilseed Rape (oilseed rape; [4]): 90; Morningglory plant response rating (0 to 100 scale) (morningglory; 125 g ai/ha): 0; Morningglory plant response rating (morningglory; [2]): 40; Foxtail, Giant plant response rating (giant foxtail; [1]): 80; Plant response rating, Foxtail, Giant (giant foxtail; [2]): 90
2 | Clc1cnc(Oc2ccccc2-n2cc(I)nn2)nc1 [Compound 222] | 5 | 5 | 5 | 5 | 30 | 60 | 5 | 10 | 20 |  |  |  |  |  |  |  |  |  |  |  | Plant response rating, Wheat (wheat; [7]): 40; Plant response rating, Barnyardgrass (barnyardgrass; [7]): 100; Plant response rating (0 to 100), Crabgrass, Large (large (Lg) crabgrass; 8 g ai/ha, postemergence): 5; Plant response rating (0 to 100), Blackgrass (blackgrass; 8 g ai/ha, postemergence): 0; Plant response rating (0 to 100), Oilseed Rape (oilseed rape; 8 g ai/ha, postemergence): 10; Morningglory plant response rating (morningglory; 1000 g ai/ha, 0 to 100 scale, 0 no effect, 100 complete control, approx. 10 days): 100; Plant response rating, Foxtail, Giant (giant foxtail; [7]): 90
3 | FC(F)c1cnn(-c2ccccc2Oc2ncc(Cl)cn2)c1 [Compound 80, 5-chloro-2-[2-[4-(difluoromethyl)-1H-pyrazol-1-yl]phenoxy]pyrimidine] |  |  |  |  |  |  |  |  |  | 40% | 70% | 100% | 5% | 5% | 5% | 40% | 5% | 10% | 80% | 80% | plant injury at 500 g/ha (wheat; 500 g ai/ha, 0 to 100 scale where 0 is no effect and 100 is complete control, read-out: Plant response rating, Wheat): 80%; pest or weed control at 16 g/ha (large (Lg) crabgrass; Digitaria sanguinalis, post-emergence, 16 g ai/ha, postemergence, visual rating, scale 0 to 100 (0 no effect, 100 complete control), 13 to 15 days, read-out: Crabgrass, Large plant response rating): 0%; pest or weed control at 16 g/ha (blackgrass; Alopecurus myosuroides, post-emergence, 16 g ai/ha, postemergence, visual rating, scale 0 to 100 (0 no effect, 100 complete control), 13 to 15 days, read-out: Blackgrass plant response rating): 0%; plant injury at 125 g/ha (oilseed rape; Brassica napus, post-emergence, 125 g ai/ha, postemergence, read-out: Plant response rating (0 to 100), Oilseed Rape): 90%; plant injury at 31 g/ha (oilseed rape; Brassica napus, post-emergence, Postemergence, 31 g ai/ha, scale 0 to 100 (0 no effect, 100 complete control), 13 to 15 days, read-out: Plant response rating, Oilseed Rape): 70%; plant injury at 62 g/ha (oilseed rape; Brassica napus, post-emergence, Postemergence, 62 g ai/ha, scale 0 to 100 (0 no effect, 100 complete control), read-out: Plant response rating, Oilseed Rape): 80%; Plant response rating, Morningglory (morningglory; [1]): 30; pest or weed control at 500 g/ha (giant foxtail; 500 g ai/ha, 0 to 100 scale where 0 is no effect and 100 is complete control, read-out: Plant response rating, Foxtail, Giant): 90%
4 | Clc1cnn(-c2ccccc2Oc2ncc(Br)cn2)c1 [Compound 5, 5-bromo-2-[2-(4-chloro-1H-pyrazol-1-yl)phenoxy]pyrimidine] |  |  |  |  |  |  |  |  |  | 0% | 10% | 60% | 20% | 5% | 15% | 20% | 0% | 5% | 20% | 40% | plant injury at 500 g/ha (wheat; 500 g ai/ha, 0 to 100 scale, 0 no effect, 100 complete control, read-out: Plant response rating Wheat): 40%; pest or weed control at 250 g/ha (large (Lg) crabgrass; Digitaria sanguinalis, post-emergence, 250 g ai/ha, postemergence, read-out: Plant response rating (0 to 100), Crabgrass, Large): 20%; pest or weed control at 250 g/ha (blackgrass; Alopecurus myosuroides, post-emergence, 250 g ai/ha, postemergence, read-out: Plant response rating (0 to 100), Blackgrass): 45%; pest or weed control at 125 g/ha (morningglory; Ipomoea, pre-emergence, 240 h, 125 g ai/ha, 0 to 100 scale where 0 is no effect and 100 is complete control, read-out: Morningglory plant response rating): 0%; pest or weed control at 500 g/ha (giant foxtail; 500 g ai/ha, 0 to 100 scale, 0 no effect, 100 complete control, read-out: Plant response rating Foxtail, Giant): 100%
